Structures are written as SMILES. Several values for one entry are separate records, joined by “and”; a condition that tells them apart may be missing. Equal entries are not always repeated. Structures can show the parent of a compound that is named as a salt.

Consider `Clc1ccc(-c2cc(Cl)c(Cl)cc2Cl)cc1Cl` [PCB-118], for which the melting point turned out to be 110 °C.

Consider `Cc1ccccc1N1CCN(CCc2nnc3n2CCCC3)CC1` [dapiprazole], for which the melting point was determined as 158 °C.

`CCCCN1CCCCC1C(=O)Nc1c(C)cccc1C` (stereo not drawn) [Bupivacaine] showed a melting point of 108 °C.

The molecule `O=P(Oc1ccccc1)(Oc1ccccc1)Oc1ccccc1` [Triphenyl phosphate] had a melting point of 50.5 °C.

Molecule `CC1(C)C(=O)OOC1=O` [4,4-dimethyl-1,2-dioxolane-3,5-dione] had a melting point of 45 °C.

Turning to `N#Cc1ccc([N+](=O)[O-])cc1` [p-nitrobenzonitrile], the melting point was 149 °C.

In turn, `O=C(O)c1cc(Cl)cc([N+](=O)[O-])c1Cl` [2,5-dichloro-3-nitrobenzoic acid] came in with a melting point of 220 °C.

`NC(=O)CN1Cc2ccccc2OC1=O` [caroxazone] returned a melting point of 203 °C.

The molecule `[O-][n+]1ccccc1` [pyridine n-oxide] returned a melting point of 64 °C.

`O=C(O)c1ccc2ccccc2n1` [quinaldic acid] returned a melting point of 158 °C.

In the case of `Clc1ccc(Br)c(Cl)c1` [1-bromo-2,4-dichlorobenzene], the melting point was 27 °C.

Turning to `CC1C(=O)CCCC1=O` [2-methylcyclohexane-1,3-dione], the melting point worked out at 206 °C.

For the molecule `CC(Cl)(Cl)Cl` [1,1,1-trichloroethane], the melting point was -30 °C.

The molecule `OC1CCCCC1` [cyclohexanol] displayed a melting point of 24 °C.

For the molecule `COc1cccc(C)c1C` [2,3-dimethylanisole], the melting point stood at 29 °C.

In the case of `CCCC(=O)c1ccccc1` [butyrophenone], the melting point came out at 12 °C.

Turning to `CCc1ccc(Br)cc1` [1-bromo-4-ethylbenzene], the melting point is -43 °C.

In turn, `Cc1c(Cl)cccc1Cl` [2,6-dichlorotoluene] came in with a melting point of 2 °C.

Turning to `CCOC(=O)c1ccc(O)cc1` [Ethyl 4-hydroxybenzoate], the melting point came out at 117 °C.

Molecule `CCCCC(C)CC(O)C=CC1C(O)CC(=O)C1CCCCC=CC(=O)O` (stereo not drawn) showed a melting point of 97 °C.

Regarding `CCC(C)I` (stereo not drawn) [2-iodobutane], the melting point was -104 °C.

For `CCCN(CCC)C(=O)Cc1c(-c2ccc(Cl)cc2)nc2ccc(Cl)cn12` [alpidem], the melting point came to 140 °C.

Molecule `O=Cc1ccc(Cl)cc1Cl` [2,4-dichlorobenzaldehyde] yielded a melting point of 73 °C.

In turn, `Nc1ccccc1I` [o-iodoaniline] displayed a melting point of 58 °C.

On to `N#Cc1ccc(C#N)cc1` [terephthalonitrile], for which the melting point worked out at 226 °C.

On to `Cc1ccc2oc(-c3cccc(O)c3)cc(=O)c2c1` [3'-hydroxy-6-methylflavone], for which the melting point was found to be 205 °C.

In turn, `O=C(O)c1ccccc1` [benzoic acid] had a melting point of 122 °C.

Regarding `N#Cc1ccccc1C=O` [o-cyanobenzaldehyde], the melting point turned out to be 108 °C.

On to `O=C(O)[C@@]1(O)CC(O)[C@H](O)[C@H](O)C1` (stereo partly drawn) [D-quinic acid], for which the melting point turned out to be 165 °C.

Molecule `CC1=C(C)C(C)N=N1` (stereo not drawn) [1H-pyrazole, 3,4,5-trimethyl-] gave a melting point of 138 °C.

As for `Cc1ccc(C(=O)O)cc1` [4-methylbenzoic acid], the melting point is 180 °C and 181 °C.

`O=C(OCc1ccccc1)c1ccccc1` [Benzyl Benzoate] came in with a melting point of 21 °C.

Consider `N#Cc1ccc(O)c(Cl)c1` [3-chloro-4-hydroxybenzonitrile], for which the melting point is 148 °C.

`Cn1c(=O)ccc2ccccc21` [1-methyl-2-quinolinone] had a melting point of 75 °C.

As to `Oc1ccccc1I` [2-iodophenol], the melting point was 43 °C and 38.5 °C.

For `CCCC(c1ccccc1)c1ccccc1` [1,1-diphenylbutane], the melting point is -25 °C.

`OCCOc1ccccc1` [2-phenoxyethanol]: the melting point worked out at 12 °C.

For `N#Cc1ccc(B(O)O)s1` [5-cyanothiophene-2-boronic acid], the melting point was 127 °C.

Molecule `OCc1ccccc1I` [o-iodobenzyl_alcohol] gave a melting point of 92 °C.

Take `CCOC(=O)CC(O)(CC(=O)OCC)C(=O)OCC` [triethyl citrate]: the melting point was -55 °C.

With `CCN(CC)c1ccccc1` [N,N-diethylaniline], the melting point was -38 °C.

Turning to `c1cscn1` [thiazole], the melting point is -33 °C.

Molecule `O=C1C=C(NCNc2ccccn2)C(=O)c2ccccc21` [2-{[(pyridin-2-ylamino)methyl]amino}naphthalene-1,4-dione] showed a melting point of 135 °C.

The molecule `O=C(O)c1ccc(I)cc1` [p-iodobenzoic_acid] showed a melting point of 273 °C.

Regarding `CC(=NNC(=O)c1ccncc1)c1ccco1` [a-Methylfurfurylidenehydrazide of Isonicotinic Acid], the melting point amounted to 199 °C.

With `c1ccncc1` [pyridine], the melting point was -42 °C.

The molecule `CC(C)(C)c1cc(C(=S)NC2CCCCC2)cc(C(C)(C)C)c1O` [3,5-Di-tert-butyl-N-cyclohexyl-4-hydroxy-thiobenzamide] showed a melting point of 228 °C.

Regarding `Cc1cccc(C(N)=O)c1` [m-toluamide], the melting point was determined as 96 °C.

For `CCCc1cc(O)nc(S)n1` [6-Propyl-2-sulfanylpyrimidin-4-ol], the melting point amounted to 220 °C.

With `CC(=O)C(C)C` [3-methyl-2-butanone], the melting point was -92 °C.

Molecule `OCc1cc2ccccc2s1` [benzo[b]thiophene-2-methanol] had a melting point of 100 °C.

`C[C@H](O)[C@@H](C)O` [(2R,3S)-Butane-2,3-diol] showed a melting point of 33 °C.

On to `CCCCOCC` [1-Ethoxybutane], for which the melting point is -103 °C.

Turning to `C=CCCCCCCCCCCCC` [Tetradec-1-ene], the melting point is -13 °C.

Turning to `C1CCC(C2CCCCC2)CC1` [dicyclohexyl], the melting point amounted to 4 °C.

On to `O=C(CO)[C@H](O)[C@@H](O)[C@H](O)CO` [D-sorbose], for which the melting point was determined as 164 °C.

`Cc1cccc(Nc2ccncc2S(=O)(=O)NC(=O)NC(C)C)c1` [Torasemide] returned a melting point of 164 °C.

For the molecule `OB(O)c1ccc(N(Cc2ccccc2)Cc2ccccc2)cc1` [4-(dibenzylamino)benzeneboronic acid], the melting point was found to be 186 °C.

Regarding `CCCOC(C)=O` [propyl_acetate], the melting point is -95 °C.

Turning to `CCCCCCCCCCCCCCCCC1CO1` (stereo not drawn) [2-Hexadecyloxirane], the melting point came out at 26 °C.

Take `CC12CCC(CC1=O)C2(C)C` (stereo not drawn) [camphor]: the melting point stood at 177 °C.

The molecule `O=[N+]([O-])c1ccc(Cl)c(Cl)c1` [3,4-Dichloronitrobenzene] showed a melting point of 41.3 °C.

`O=C(O)CCC(=O)O` [succinic acid]: the melting point was 188 °C and 187 °C.

`O=C(O)c1ccc([N+](=O)[O-])o1` [5-nitro-2-furoic acid] gave a melting point of 187 °C.

On to `Oc1cc(Cl)c(Cl)cc1Cl` [2,4,5-trichlorophenol], for which the melting point was 69 °C and 67 °C and 68 °C.

The molecule `CCCCNCC(O)c1ccc(O)cc1` (stereo not drawn) [bamethan] had a melting point of 124 °C.

On to `COc1ccc(C(C)C)cc1B(O)O` [5-isopropyl-2-methoxybenzeneboronic acid], for which the melting point was determined as 86 °C.

Consider `O=C(O)CCc1cccc(Br)c1` [3-(3-bromophenyl)propionic acid], for which the melting point stood at 64 °C.

Broadly, the melting point is the temperature, or range, at which the solid turns liquid.
